Measurements from patent US20260206759A1, “PYRAZOL-5-ETHER COMPOUND, AND PREPARATION METHOD THEREFOR AND USE THEREOF” (CAC NANTONG CHEMICAL CO., LTD., priority 2023, published 2026).

What was measured:
Assay type in all cases: in vivo
[1] = system: wheat powdery mildew (Blumeria graminis (DC.) Speer); test: Whole-plant pot assay, control effect against wheat powdery mildew; conditions: spray on wheat leaves, inoculation 24 h after treatment, assessed 10 days after inoculation
Protocol: Various kinds of pathogens were tested with the compounds of the present application. Unless otherwise specified in the examples and the present application, the preparation method of samples is as follows: 10 mg of the compound was weighed and dissolved in 1 mL DMF to prepare a 10000 ppm stock solution, and the stock solution was diluted with 0.05% Tween-80 aqueous solution to the required concentrations for activity tests.
In this example, the control effects of the prepared pyrazol-5-ether compounds against wheat powdery mildew (Blumeria graminis (DC.) Speer) were tested using the following method.
A whole-plant pot assay was employed for screening. The pesticide formulation was uniformly sprayed onto wheat leaves at the first true leaf stage using a laryngeal atomizer, with three replicates per treatment. The treated plant was air-dried naturally indoors. At 24 hours post-treatment, wheat powdery mildew spores (collected approximately 10 days after inoculation) were evenly dusted onto the compound-treated wheat leaves. Disease assessment was conducted 10 days after spore inoculation when symptom development stabilized in the control group. The assessment results were recorded on a 100-0 scale, where ‘100’ indicates complete disease absence and ‘0’ represents maximum disease severity.

[2] = system: cucumber powdery mildew (Erysiphe cichoracearum); test: Whole-plant pot assay, control effect against cucumber powdery mildew; conditions: 2.5 ppm, foliar spray on cucumber seedlings, inoculation 24 h after treatment
Protocol: In this example, the control effects of the prepared pyrazol-5-ether compounds against cucumber powdery mildew (Erysiphe cichoracearum) were tested using the following method.
(§1) A whole-plant pot assay was employed for screening. […] Greenhouse-cultivated cucumber seedlings at the two-leaf stage served as test hosts for cucumber powdery mildew (Erysiphe cichoracearum). The compounds of the present application were sprayed on the leaves at designed concentrations, and lank controls sprayed with water were also set, in triplicate. At 24 hours post-treatment, pathogen inoculation was conducted. After inoculation, the plants were maintained in controlled environment chamber for constant humidity culture (temperature: 25° C. day/20° C. night, relative humidity: 95%-99%). After 24 hours of incubation, the plants were transferred to the greenhouse. Control effect assessments were conducted on the compounds when disease symptoms fully developed in controls (typically one week). The assessment results were recorded on a 100-0 scale, where ‘100’ indicates complete disease absence and ‘0’ represents maximum disease severity.

[3] = system: soybean rust (Phakopsora pachyrhizi); test: Whole-plant pot assay, control effect against soybean rust; conditions: foliar spray on soybean plants, inoculation 24 h after treatment
Protocol: In this example, the control effects of the prepared pyrazol-5-ether compounds against soybean rust (Phakopsora pachyrhizi) were tested using the following method.
as §1, with “soybean plants” for “cucumber seedlings”, “soybean rust (Phakopsora pachyrhizi).” for “cucumber powdery mildew (Erysiphe cichoracearum).”, “blank” for “lank”, “recorded according to the A Manual of Assessment Keys for Plant Diseases compiled by the American Phytopathological Society” for “recorded”

Row | SMILES | control effect against wheat powdery mildew ([1]; 10 ppm) [%] | control effect against wheat powdery mildew ([1]; 40 ppm) [%] | control effect against cucumber powdery mildew [2] [%] | control effect against soybean rust ([3]; 4 ppm) [%] | control effect against soybean rust ([3]; 10 ppm) [%]
1 | CCN(C)/C=N/c1cc(C)c(Oc2cc(C(F)(F)F)nn2C)cc1C [Compound 16, (E)-N′-[4-(1-methyl-3-trifluoromethyl-1H-pyrazol-5-yloxy)-2,5-dimethylphenyl]-N-ethyl-N-met hylformamidine] | 81.48 | 96.30 |  |  | 
2 | CCN(C)C=Nc1cc(C)c(Oc2cc(C)nn2C)cc1Cl [Compound 132] | 74.07 |  |  |  | 
3 | CCN(C)C=Nc1cc(C)c(Oc2c(C)c(C)nn2C)cc1C [Compound 143] | 74.07 |  |  |  | 
4 | CCN(C)/C=N/c1cc(Cl)c(Oc2cc(C(C)(C)C)nn2C)cc1C [KC1] | 0 | 22.22 | 0 |  | 
5 | Cc1cc(Oc2cc(C(C)(C)C)nn2C)c(Cl)cc1/N=C/N1CCCC1 [KC2] | 0 | 0 | 0 |  | 
6 | CCN(C)/C=N/c1cc(C)c(Oc2ccn(-c3ccc(Cl)cc3)n2)cc1C [KC3] | 0 | 59.26 | 22.22 | 0 | 22
